Biological target: Replicase polyprotein 1ab (Severe acute respiratory syndrome coronavirus 2) (UniProt P0DTD1)
Description: Functional biochemical assay to identify treatments for viral infectious disease that targets SARS-COV-2 nsp3 macrodomain, whereby the mechanism of action displaces an ADP-Ribose modified peptide from the binding site. Utilizing a time-resolved fluorescence method to measure binding by reading the emitted fluorescence intensity in two wavelengths.

CC(=O)Nc1ccc(S(=O)(=O)NNc2ncnc3sccc23)cc1
inhibition (Concentration 50.0 uM, Number of replicates 2.0, Standard deviation 2.273 %): 5.36%

CC(C)c1nc([C@@H](C)Nc2ncnc3nc[nH]c23)cs1
inhibition (Concentration 49.75 uM, Number of replicates 2.0, Standard deviation 2.607 %): 2.65% | inhibition (Concentration 99.5 uM, Number of replicates 2.0, Standard deviation 0.232 %): 3.07%

Cc1nc(C)c(CC(=O)Nc2cnc3[nH]ncc3c2)c(=O)[nH]1
inhibition (Concentration 50.0 uM, Number of replicates 2.0, Standard deviation 0.296 %): 4.83%

O=C(CCN(Cc1cccc(Cl)c1)C(=O)c1c[nH]c(=O)cn1)N1CCNCC1
inhibition (Concentration 49.75 uM, Number of replicates 2.0, Standard deviation 1.237 %): -2.71% | inhibition (Concentration 99.5 uM, Number of replicates 2.0, Standard deviation 0.012 %): 0.98%

Cc1c([C@@H](C)Nc2ncnc3[nH]ccc23)cnn1-c1ccccc1
inhibition (Concentration 49.75 uM, Number of replicates 2.0, Standard deviation 1.063 %): 28.1% | inhibition (Concentration 99.5 uM, Number of replicates 2.0, Standard deviation 3.12 %): 41.7%

O=C(Nc1nc2ccc(F)cc2[nH]1)c1cc(N2CCNC2=O)ccc1F
inhibition (Concentration 50.0 uM, Number of replicates 2.0, Standard deviation 3.412 %): -7.71%

Cc1nc(NC(=O)c2ccnn2C(C)C)c2cc[nH]c2n1
inhibition (Concentration 50.0 uM, Number of replicates 2.0, Standard deviation 4.637 %): -2.64% | inhibition (Concentration 100.0 uM, Number of replicates 2.0, Standard deviation 4.768 %): -4.35%

O=C(CCN(Cc1cccc(Cl)c1)C(=O)[C@@H]1CNCC12CC2)N1CCNCC1
inhibition (Concentration 49.75 uM, Number of replicates 2.0, Standard deviation 4.003 %): 4.21% | inhibition (Concentration 99.5 uM, Number of replicates 2.0, Standard deviation 2.443 %): 2.38%

O=C(c1nc(=O)[nH][nH]1)N1CCC(c2ccn3ncc(C(=O)N4CCCCC4)c3c2)CC1
inhibition (Concentration 49.75 uM, Number of replicates 2.0, Standard deviation 0.837 %): 23.4% | inhibition (Concentration 99.5 uM, Number of replicates 2.0, Standard deviation 3.14 %): 34.6%

O=C(O)c1ccc2c(c1)ncn2-c1ccc(CNC(=O)c2ncnc3[nH]ccc23)cc1
inhibition (Concentration 99.5 uM, Number of replicates 2.0, Standard deviation 0.835 %): -4.65%

CC(C)Cn1cc([C@H]2N(c3ncnc4[nH]ccc34)CC23CCOCC3)cn1
inhibition (Concentration 49.75 uM, Number of replicates 2.0, Standard deviation 1.28 %): -0.591% | inhibition (Concentration 99.5 uM, Number of replicates 2.0, Standard deviation 6.534 %): -4.66%

c1ccc2c(-c3c[nH]c4ncccc34)n[nH]c2c1
inhibition (Concentration 50.0 uM, Number of replicates 2.0, Standard deviation 4.4 %): -7.25%

CC(C)[C@@H](Nc1ncnc2[nH]ccc12)c1cccs1
inhibition (Concentration 49.75 uM, Number of replicates 2.0, Standard deviation 1.872 %): 84.7% | inhibition (Concentration 99.5 uM, Number of replicates 2.0, Standard deviation 2.645 %): 89.9%

CN(Cc1cn(C)nn1)C(=O)c1cnn2ccc(C3CCN(C(=O)c4ccccc4)CC3)cc12
inhibition (Concentration 49.75 uM, Number of replicates 2.0, Standard deviation 4.768 %): 2.17% | inhibition (Concentration 99.5 uM, Number of replicates 2.0, Standard deviation 1.859 %): 1.34%

O=C(Cc1ccns1)Nc1ncnc2[nH]cnc12
inhibition (Concentration 49.75 uM, Number of replicates 2.0, Standard deviation 7.374 %): -9.5% | inhibition (Concentration 99.5 uM, Number of replicates 2.0, Standard deviation 4.303 %): -3.24%

CC(C)n1nccc1NC(=O)c1ccc(NC(=O)Nc2ccccc2)cc1
inhibition (Concentration 49.75 uM, Number of replicates 2.0, Standard deviation 2.48 %): -2% | inhibition (Concentration 99.5 uM, Number of replicates 2.0, Standard deviation 1.778 %): -0.924%

Cn1c(C(=O)NCCn2cccc2)cc2c(=O)n3ccccc3nc21
inhibition (Concentration 50.0 uM, Number of replicates 2.0, Standard deviation 2.478 %): 2.26%

CC(C)[C@@H](Nc1ncnc2[nH]ccc12)c1nc2ccccc2[nH]1
inhibition (Concentration 49.75 uM, Number of replicates 2.0, Standard deviation 3.253 %): 37.3% | inhibition (Concentration 99.5 uM, Number of replicates 2.0, Standard deviation 1.702 %): 52.5%

Cc1nc(Nc2cnn(CCO)c2)c2cc[nH]c2n1
inhibition (Concentration 50.0 uM, Number of replicates 2.0, Standard deviation 4.582 %): -6.15%

O=C(c1ccccc1)N1CCC(c2ccn3ncc(C(=O)N4CCc5nc[nH]c5C4)c3c2)CC1
inhibition (Concentration 49.75 uM, Number of replicates 2.0, Standard deviation 2.532 %): 11.2% | inhibition (Concentration 99.5 uM, Number of replicates 2.0, Standard deviation 2.098 %): 20.3%

OC[C@@H](Nc1ncnc2[nH]c(I)cc12)c1ccccc1
inhibition (Concentration 50.0 uM, Number of replicates 2.0, Standard deviation 1.35 %): 26.1%

O=C(Nc1ccccc1)Nc1ccc(C(=O)N2CCc3ccncc32)cc1
inhibition (Concentration 49.75 uM, Number of replicates 2.0, Standard deviation 6.741 %): -4.3% | inhibition (Concentration 99.5 uM, Number of replicates 2.0, Standard deviation 1.961 %): 0.234%

Cc1nn(C)c(C)c1[C@H]1COCCN1c1ncnc2[nH]ccc12
inhibition (Concentration 49.75 uM, Number of replicates 2.0, Standard deviation 4.821 %): -0.137% | inhibition (Concentration 99.5 uM, Number of replicates 2.0, Standard deviation 1.988 %): -0.128%

O=C(NC1CCC(F)(F)CC1)c1ncnc2[nH]ccc12
inhibition (Concentration 49.75 uM, Number of replicates 2.0, Standard deviation 1.299 %): -3.47% | inhibition (Concentration 99.5 uM, Number of replicates 2.0, Standard deviation 1.382 %): -5.78%

O[C@H]1C[C@](CNc2ncnc3[nH]ccc23)(c2ccccc2)C1
inhibition (Concentration 50.0 uM, Number of replicates 2.0, Standard deviation 6.633 %): 11.4%

O=C1CC[C@H](COC(=O)c2ncnc3[nH]ccc23)CCN1
inhibition (Concentration 50.0 uM, Number of replicates 2.0, Standard deviation 3.465 %): -7.87%

CSc1cccc(NC(=O)c2ncnc3[nH]ccc23)c1
inhibition (Concentration 50.0 uM, Number of replicates 2.0, Standard deviation 4.41 %): -4.67%

O=C(Nc1cnc2[nH]ncc2c1)c1ccc(Oc2cccc(Br)c2)nc1
inhibition (Concentration 50.0 uM, Number of replicates 2.0, Standard deviation 1.64 %): -0.183%

Cc1n[nH]c(C)c1C(=O)N1CCC(c2ccn3ncc(C(=O)N4CCCCC4)c3c2)CC1
inhibition (Concentration 49.75 uM, Number of replicates 2.0, Standard deviation 0.408 %): 10.8% | inhibition (Concentration 99.5 uM, Number of replicates 2.0, Standard deviation 0.015 %): 23.3%

O=C(Nc1ccc(C(=O)NCc2c(C(=O)O)[nH]c3ccccc23)cc1)NC1CC1
inhibition (Concentration 50.0 uM, Number of replicates 2.0, Standard deviation 1.193 %): 86.2%

O=C(c1c[nH]c(=O)cn1)N1CCC(c2ccn3ncc(C(=O)N4CCCCC4)c3c2)CC1
inhibition (Concentration 99.5 uM, Number of replicates 2.0, Standard deviation 1.433 %): 45.8%

C[C@@H]1[C@H](O)CCCN1C(=O)c1ccc(NC(=O)Nc2ccccc2)cc1
inhibition (Concentration 49.75 uM, Number of replicates 2.0, Standard deviation 0.457 %): -2.96% | inhibition (Concentration 99.5 uM, Number of replicates 2.0, Standard deviation 5.068 %): -2.72%

COCc1cc(CNc2cc3c(O)ncnc3cn2)no1
inhibition (Concentration 50.0 uM, Number of replicates 2.0, Standard deviation 0.223 %): 3.31%

Cc1[nH]c2ncnc(NC(=O)C3CC=CC3)c2c1C
inhibition (Concentration 50.0 uM, Number of replicates 2.0, Standard deviation 5.54 %): 73.1%

O=C(Nc1cnc2[nH]ncc2c1)c1cccc(-c2noc(C(F)(F)F)n2)c1
inhibition (Concentration 50.0 uM, Number of replicates 2.0, Standard deviation 7.077 %): -0.675% | inhibition (Concentration 100.0 uM, Number of replicates 2.0, Standard deviation 3.401 %): -1.62%

O=C(Cn1c(=O)[nH]c2ccccc21)Nc1cnc2[nH]ncc2c1
inhibition (Concentration 50.0 uM, Number of replicates 2.0, Standard deviation 2.142 %): 1.78%

CC(C)[C@H]1CNC(=O)CN1c1ncnc2[nH]ccc12
inhibition (Concentration 49.75 uM, Number of replicates 2.0, Standard deviation 0.296 %): 6.84% | inhibition (Concentration 99.5 uM, Number of replicates 2.0, Standard deviation 2.93 %): 17.6%

CN(C(=O)c1cnn2ccc(C3CCN(C(=O)c4ccccc4)CC3)cc12)c1ccccc1O
inhibition (Concentration 49.75 uM, Number of replicates 2.0, Standard deviation 2.649 %): 10% | inhibition (Concentration 99.5 uM, Number of replicates 2.0, Standard deviation 4.361 %): 15.9%

O=C(N[C@H]1CCC[C@H]1C(=O)O)c1cnn2ccc(C3CCN(C(=O)c4ccccc4)CC3)cc12
inhibition (Concentration 49.75 uM, Number of replicates 2.0, Standard deviation 2.492 %): 59.6% | inhibition (Concentration 99.5 uM, Number of replicates 2.0, Standard deviation 0.074 %): 73.5%

CCn1cc(CNc2cc3c(O)ncnc3cn2)nn1
inhibition (Concentration 50.0 uM, Number of replicates 2.0, Standard deviation 1.563 %): 1.67%

CCN(Cc1nnc(C)o1)C(=O)c1cnn2ccc(C3CCN(C(=O)c4ccccc4)CC3)cc12
inhibition (Concentration 49.75 uM, Number of replicates 2.0, Standard deviation 14.085 %): 10% | inhibition (Concentration 99.5 uM, Number of replicates 2.0, Standard deviation 1.269 %): -5.31%

Nc1c(O)cccc1C(=O)N(CCC(=O)N1CCNCC1)Cc1cccc(Cl)c1
inhibition (Concentration 49.75 uM, Number of replicates 2.0, Standard deviation 0.165 %): -1.24% | inhibition (Concentration 99.5 uM, Number of replicates 2.0, Standard deviation 3.032 %): 1.46%

Cc1cncc(NCc2csc(-c3ccccn3)n2)c1
inhibition (Concentration 50.0 uM, Number of replicates 2.0, Standard deviation 0.194 %): -5.02%

Cn1ncc2ncnc(NCc3ncccc3O)c21
inhibition (Concentration 50.0 uM, Number of replicates 2.0, Standard deviation 1.081 %): -2.55%

O=C(O)c1cnc(C(=O)N2CCC(c3ccn4ncc(C(=O)N5CCCCC5)c4c3)CC2)cn1
inhibition (Concentration 49.75 uM, Number of replicates 2.0, Standard deviation 0.482 %): 27.5% | inhibition (Concentration 99.5 uM, Number of replicates 2.0, Standard deviation 1.164 %): 46.4%

Cc1cc(C(=O)N2CCC(c3ccn4ncc(C(=O)N5CCCCC5)c4c3)CC2)[nH]n1
inhibition (Concentration 49.75 uM, Number of replicates 2.0, Standard deviation 4.639 %): 16.6% | inhibition (Concentration 99.5 uM, Number of replicates 2.0, Standard deviation 3.947 %): 31.6%

FC(F)(F)c1ccccc1[C@@H]1CN(c2ncnc3[nH]ccc23)CCO1
inhibition (Concentration 50.0 uM, Number of replicates 2.0, Standard deviation 3.904 %): -5.31%

CC(C)[C@@H](CCN(C)C(=O)c1cc2c(s1)CC[C@H](C)C2)Nc1ncnc2[nH]ccc12
inhibition (Concentration 49.75 uM, Number of replicates 2.0, Standard deviation 6.617 %): -9.68%

Cn1nc(NC(=O)c2cc(-c3ccco3)[nH]n2)c2nccnc21
inhibition (Concentration 50.0 uM, Number of replicates 2.0, Standard deviation 0.879 %): -5.4%

C(=C1CCCCC1)c1ncnc2[nH]ccc12
inhibition (Concentration 50.0 uM, Number of replicates 2.0, Standard deviation 3.96 %): -5.46% | inhibition (Concentration 100.0 uM, Number of replicates 2.0, Standard deviation 2.541 %): 3.46%

O=C(NCc1cc2n(n1)CCCC2)c1cc2cncnc2[nH]1
inhibition (Concentration 50.0 uM, Number of replicates 4.0, Standard deviation 10.451 %): 4.17%

From ChEMBL document CHEMBL5442379, “ASAP - SARS-CoV-2 nsp3 macrodomain single point” (2024)
